In publication PMC10051798, “Thiosemicarbazide Derivatives Targeting Human TopoIIα and IDO-1 as Small-Molecule Drug Candidates for Breast Cancer Treatment” (International Journal of Molecular Sciences, 2023):

What was measured:
MDA-MB-231 cells = experiment: Annexin V/propidium iodide flow cytometry (apoptosis), MDA-MB-231; format: cell-based, human; settings: MDA-MB-231, 24 h, concentration not given
From the text: (§1) Flow cytometry analyses for apoptosis induction by the compounds 1–3 and etoposide wereperformedusing an FITC Annexin V Apoptosis Detection Kit II (BD Pharmingen, San Diego, CA, USA). The rationale of the assay is based on the externalization of phosphatidylserine on the surface of apoptotic cells. In early and late apoptotic cells, the phosphatidylserine translocates into the outer layer of the membrane, which allows annexin V-FITC to attach. Propidium iodide (PI) is, in turn, a fluorescent dye that penetrates into the late apoptotic and necrotic cells with impaired cell membrane integrity. Therefore, using annexin V and PI, it is possible to distinguish four groups of cells: living cells, early apoptotic cells, late apoptotic cells and necrotic cells. MCF-7 and MDA-MB-231 cells were incubated with 10 and 20 µg/mL of compounds 1–3 and etoposide (reference drug) for 24 h. After incubation, the cells were dyed with FITC-labeled annexin V and PI. The analysis was performed on a BD FACS Canto II flow cytometer using FACSDiva software (version 6.1.3, BD Biosciences Systems, San Diego, CA, USA). The equipment was calibrated with BD Cytometer Setup and Tracking Beads (BDBiosciences, San Diego, CA, USA).

MRP1/2 in MCF-7 cells = experiment: MDR transporter activity assay, MRP in MCF-7; format: cell-based, human; settings: MCF-7, 10 µg/mL, 24 h
Description: (§2) An MDR Assay kit (Abcam, Cambridge, UK) was used following the manufacturer’s instructions. MCF-7 and MDA-MB-231 cells were incubated with compounds 1–3 (10 μg/mL and 20 μg/mL). After 24 h of incubation, the test cells were washed twice with 5 mL of PBS by centrifugation at 1200 rpm for 10 min. The supernatants were discarded and the cells were counted using a Scepter 3.0 handheld automated cell counter (Milipore, Burlington, MA, USA). Then, each of the tested samples was divided into three parts and analyzed. Tomeasure the activity of MDR1, MRP1 and BCRP (tubes 1–12), 5 μL of verapamil (MDR1 inhibitor) was added into tubes 1–3, 5 μL of MK-571 (MRP1 inhibitor) was added into tubes 4–6, 5 μL of noviobiocin (BCRP inhibitor) was added into tubes 7–9 and 125 μL DMEM with 1 μL of DMSO was added into tubes 10–12. Then, the samples were incubated at 37 °C for five minutes. After this time, 125 μL of Efflux Green Detection Reagent was added into tubes 1–12 and the samples were incubated for 30 min at 37 °C. After 25 min of incubation, 5 μL of PI was added to each tube. Thereafter, the samples were centrifuged for 10 min at 1200 rpm. The supernatants were discarded and the cells were resuspended in 500 μL of PBS and run on the flow cytometer immediately. Measurements were conducted on a BD FACSCanto II flow cytometer using FACSDiva software (version 6.1.3, BD Biosciences, San Diego, CA, USA). […]

[1] = tested on: MRP1/2 in MDA-MB-231 cells; experiment: MDR transporter activity assay, MRP in MDA-MB-231; format: cell-based, human; settings: 24 h
Description: (§3) An MDR Assay kit (Abcam, Cambridge, UK) was used following the manufacturer’s instructions. MCF-7 and MDA-MB-231 cells were incubated with compounds 1–3 (10 μg/mL and 20 μg/mL). After 24 h of incubation, the test cells were washed twice with 5 mL of PBS by centrifugation at 1200 rpm for 10 min. The supernatants were discarded and the cells were counted using a Scepter 3.0 handheld automated cell counter (Milipore, Burlington, MA, USA). Then, each of the tested samples was divided into three parts and analyzed. Tomeasure the activity of MDR1, MRP1 and BCRP (tubes 1–12), 5 μL of verapamil (MDR1 inhibitor) was added into tubes 1–3, 5 μL of MK-571 (MRP1 inhibitor) was added into tubes 4–6, 5 μL of noviobiocin (BCRP inhibitor) was added into tubes 7–9 and 125 μL DMEM with 1 μL of DMSO was added into tubes 10–12. Then, the samples were incubated at 37 °C for five minutes. After this time, 125 μL of Efflux Green Detection Reagent was added into tubes 1–12 and the samples were incubated for 30 min at 37 °C. After 25 min of incubation, 5 μL of PI was added to each tube. Thereafter, the samples were centrifuged for 10 min at 1200 rpm. The supernatants were discarded and the cells were resuspended in 500 μL of PBS and run on the flow cytometer immediately. Measurements were conducted on a BD FACSCanto II flow cytometer using FACSDiva software (version 6.1.3, BD Biosciences, San Diego, CA, USA). […] The calculations followed these formulas:MAFMDR1= 100 × (FMDR1 − F0)/FMDR1 MAFMRP= 100 × (FMRP − F0)/FMRP MAFBCRP= 100 × (FBCRP − F0)/FBCRP
(§4) • FMDR—MFI with MDR1 inhibitor (verapamil) • FMRP—MFI with MRP inhibitor (MK-571) • FBCRP—MFI with BCRP inhibitor (novobiocin) • F0—MFI without inhibitor
(§5) The theoretical range of the MAF values is between 0 and 100.

BCRP in MDA-MB-231 cells = target: T1, BCRP in MDA-MB-231 cells (Homo sapiens, UniProt Q9UNQ0); experiment: MDR transporter activity assay, BCRP in MDA-MB-231; format: cell-based; settings: 24 h
T1 construct: endogenous in cells; host or cells: MCF-7 and MDA-MB-231 cells
T1 sequence (Q9UNQ0 1-655): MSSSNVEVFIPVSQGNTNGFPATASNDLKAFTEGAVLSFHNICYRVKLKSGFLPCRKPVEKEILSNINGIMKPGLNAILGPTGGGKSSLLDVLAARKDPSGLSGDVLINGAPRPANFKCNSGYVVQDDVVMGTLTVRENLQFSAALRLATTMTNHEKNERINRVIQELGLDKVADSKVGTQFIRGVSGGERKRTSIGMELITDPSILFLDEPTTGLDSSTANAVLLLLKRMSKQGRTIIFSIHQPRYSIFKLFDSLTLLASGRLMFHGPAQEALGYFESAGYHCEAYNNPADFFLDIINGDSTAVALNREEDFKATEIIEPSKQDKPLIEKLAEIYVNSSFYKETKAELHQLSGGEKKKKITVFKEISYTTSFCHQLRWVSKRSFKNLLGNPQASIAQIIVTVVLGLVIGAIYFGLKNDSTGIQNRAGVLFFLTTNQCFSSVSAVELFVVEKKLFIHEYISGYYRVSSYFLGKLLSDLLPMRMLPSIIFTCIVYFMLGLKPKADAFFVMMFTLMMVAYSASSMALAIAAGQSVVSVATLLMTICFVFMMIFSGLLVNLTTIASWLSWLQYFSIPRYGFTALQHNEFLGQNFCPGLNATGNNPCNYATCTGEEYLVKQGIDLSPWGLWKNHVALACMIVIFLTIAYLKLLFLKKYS
Description: as §3, §4, §5

[2] = target: T2, MDR1 (p-glycoprotein) in MCF-7 cells (Homo sapiens, UniProt P08183); experiment: MDR transporter activity assay, MDR1 in MCF-7; format: cell-based; settings: MCF-7, 10 µg/mL, 24 h
T2 construct: endogenous in cells; host or cells: MCF-7 and MDA-MB-231 cells
Description: as §2

MCF-7 cells = experiment: Annexin V/propidium iodide flow cytometry (apoptosis), MCF-7; format: cell-based, human; settings: MCF-7, 24 h, concentration not given
From the text: as §1

T2 sequence (P08183 whole entry): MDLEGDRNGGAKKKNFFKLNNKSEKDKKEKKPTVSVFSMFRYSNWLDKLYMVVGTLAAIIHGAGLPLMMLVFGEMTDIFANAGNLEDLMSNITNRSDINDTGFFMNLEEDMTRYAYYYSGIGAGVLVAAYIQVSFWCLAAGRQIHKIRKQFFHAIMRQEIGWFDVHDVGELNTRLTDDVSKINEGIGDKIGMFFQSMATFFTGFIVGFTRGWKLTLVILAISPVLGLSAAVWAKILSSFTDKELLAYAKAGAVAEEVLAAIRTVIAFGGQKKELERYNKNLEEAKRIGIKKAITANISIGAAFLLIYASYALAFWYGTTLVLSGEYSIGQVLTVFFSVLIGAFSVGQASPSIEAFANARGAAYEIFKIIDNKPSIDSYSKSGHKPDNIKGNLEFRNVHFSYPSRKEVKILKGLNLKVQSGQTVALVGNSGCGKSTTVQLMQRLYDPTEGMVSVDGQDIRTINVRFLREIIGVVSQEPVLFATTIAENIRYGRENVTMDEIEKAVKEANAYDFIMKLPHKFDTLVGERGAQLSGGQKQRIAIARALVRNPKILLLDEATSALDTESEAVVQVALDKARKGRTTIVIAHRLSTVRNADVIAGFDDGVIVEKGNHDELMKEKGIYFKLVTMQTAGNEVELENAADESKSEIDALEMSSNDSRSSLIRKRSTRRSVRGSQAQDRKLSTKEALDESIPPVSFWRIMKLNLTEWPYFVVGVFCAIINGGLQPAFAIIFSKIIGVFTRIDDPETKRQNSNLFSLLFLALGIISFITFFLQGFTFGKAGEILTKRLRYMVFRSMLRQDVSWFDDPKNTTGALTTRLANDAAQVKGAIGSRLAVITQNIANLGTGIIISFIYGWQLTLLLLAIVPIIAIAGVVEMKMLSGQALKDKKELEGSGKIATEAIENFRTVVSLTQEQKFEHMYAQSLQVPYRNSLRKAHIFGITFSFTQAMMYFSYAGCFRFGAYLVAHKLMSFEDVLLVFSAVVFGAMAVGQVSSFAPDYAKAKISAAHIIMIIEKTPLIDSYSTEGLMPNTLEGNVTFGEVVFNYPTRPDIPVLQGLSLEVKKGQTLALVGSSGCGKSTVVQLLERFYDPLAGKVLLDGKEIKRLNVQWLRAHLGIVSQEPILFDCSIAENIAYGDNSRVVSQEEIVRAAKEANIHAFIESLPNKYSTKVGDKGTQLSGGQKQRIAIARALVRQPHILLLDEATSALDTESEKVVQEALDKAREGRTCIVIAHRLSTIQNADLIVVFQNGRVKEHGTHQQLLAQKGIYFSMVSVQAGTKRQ

Row | SMILES | apoptotic cells (MDA-MB-231 cells) [%] | MAF MRP (MRP1/2 in MCF-7 cells) | MAF MRP ([1]; MDA-MB-231, 10 µg/mL) | MAF MRP ([1]; MDA-MB-231, 20 µg/mL) | MAF BCRP (BCRP in MDA-MB-231 cells; MDA-MB-231, 10 µg/mL) | MAF BCRP (BCRP in MDA-MB-231 cells; MDA-MB-231, 20 µg/mL) | MAF MDR1 (multidrug resistance activity factor) [2] | apoptotic cells (MCF-7 cells) [%]
1 | O=C(Cc1cccc2ccccc12)NNC(=S)Nc1ccc(/N=N/c2ccccc2)cc1 [Compound 2] | 70 | 9.9 | 7.0 | 1.8 | 4.9 | 1.4 | 9.1 | 
2 | O=C(NNC(=S)Nc1ccc(/N=N/c2ccccc2)cc1)c1ccccc1[N+](=O)[O-] [Compound 3] |  | 5.3 |  | < 20 |  | < 20 | 5.7 | ~68
